Source: patent EP4603105A1, “PHARMACEUTICAL COMPOSITION CONTAINING CYCLIC COMPOUND HAVING SELECTIVE KRAS INHIBITORY EFFECT AGAINST HRAS AND NRAS” (CHUGAI SEIYAKU KABUSHIKI KAISHA, priority 2022, dated 2024)
Where a SMILES comes first, the peptide text is derived from it. Bridges are numbered along the chain shown (N, C = ends). [ ]: non-standard residue; d: D form. The star is where a group is joined. hPhe(3-Cl-4-CF3) = N[C@@H](CCc1ccc(C(F)(F)F)c(Cl)c1)C(=O)O; NPrPhe(4-CF3) = CCCN[C@@H](Cc1ccc(C(F)(F)F)cc1)C(=O)O; NMeGly(cPent) = CN[C@H](C(=O)O)C1CCCC1; NMeD = CN[C@@H](CC(=O)O)C(=O)O; hPip = O=C(O)[C@@H]1CCCCCN1; Morpholide = C1CN(*)CCO1; Ac5c = NC1(C(=O)O)CCCC1; Aze = O=C(O)[C@@H]1CCN1; Sar = CNCC(=O)O

Tests used:
[1] = molecular target: GDP-bound NRAS wild-type protein (Homo sapiens, UniProt P01111); test: Binding to NRAS by surface plasmon resonance (SPR), KD and KD ratio to KRAS
In short: (§1)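 GDP-bound biotin-Avi RAS captured at ~100–300 RU, 30°C, pH 7.4 HBS containing 10 µM GDP, 10 mM MgCl2, 1 mM DTT, 0.01% Tween 20 and 4% DMSO. KD by 1:1 fitting.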

[2] = system: human lung cancer strain NCI-H441; format: cell-based
In short: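 Readout: […] after the ATP-based reagent. Compound: serial dilutions in dimethyl sulfoxide.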

HRAS wild-type protein = HRAS wild-type protein (Homo sapiens, UniProt P01112); test: Binding to HRAS by surface plasmon resonance (SPR), KD and KD ratio to KRAS
In short: as §1

[3] = molecular target: GDP-bound KRAS wild-type protein (Homo sapiens, UniProt P01116); test: Binding to KRAS by surface plasmon resonance (SPR), dissociation constant KD
In short: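 Read-out is KD from 1:1 fitting of single-cycle kinetics sensorgrams, blank-cycle and reference-surface corrected. Proteins were GDP-loaded, biotinylated Avi-fusions freshly captured each cycle at roughly 100–300 RU. Runs were at 30°C in HBS pH 7.4 with MgCl2, GDP and 4% DMSO.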

[4] = ratio of KD value for GDP-bound NRAS wild-type protein to KD value for KRAS (SPR)
[5] = ratio of KD value for HRAS wild-type protein to KD value for KRAS (SPR)
[6] = Single Cycle Kinetics, 1:1 binding model
[7] = ratio of KD for GDP-bound NRAS wild-type protein to KD for KRAS
[8] = ratio of KD for HRAS wild-type protein to KD for KRAS
[9] = ratio of the KD value with respect to GDP-bound NRAS wild-type protein to the KD value with respect to KRAS
[10] = ratio of the KD value with respect to HRAS wild-type protein to the KD value with respect to KRAS

Sequence of GDP-bound KRAS wild-type protein (P01116 1-188 isoform P01116-2): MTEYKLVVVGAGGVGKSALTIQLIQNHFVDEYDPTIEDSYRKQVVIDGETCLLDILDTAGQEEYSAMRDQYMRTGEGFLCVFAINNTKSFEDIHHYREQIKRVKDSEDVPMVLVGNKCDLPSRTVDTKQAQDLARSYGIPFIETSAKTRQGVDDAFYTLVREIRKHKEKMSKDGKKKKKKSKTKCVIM
Sequence of HRAS wild-type protein (P01112 whole entry): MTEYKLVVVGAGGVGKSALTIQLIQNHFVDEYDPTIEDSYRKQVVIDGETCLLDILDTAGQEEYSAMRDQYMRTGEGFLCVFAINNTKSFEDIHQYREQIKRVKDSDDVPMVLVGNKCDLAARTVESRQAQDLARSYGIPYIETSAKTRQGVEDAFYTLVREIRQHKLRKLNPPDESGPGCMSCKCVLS
Sequence of GDP-bound NRAS wild-type protein (P01111 whole entry): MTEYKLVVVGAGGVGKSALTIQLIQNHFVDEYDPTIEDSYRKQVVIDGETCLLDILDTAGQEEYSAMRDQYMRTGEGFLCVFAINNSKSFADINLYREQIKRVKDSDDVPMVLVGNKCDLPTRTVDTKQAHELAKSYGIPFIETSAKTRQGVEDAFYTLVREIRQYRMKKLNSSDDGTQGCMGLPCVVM

SMILES	NRAS /KRAS [1, 4]	IC50 [2] [nM]	HRAS /KRAS (HRAS wild-type protein; [5])	Kd [3, 6] [nM]	NRAS /KRAS [1, 7]	HRAS /KRAS (HRAS wild-type protein; [8])	Kd ([3]; 1:1 binding model) [nM]	NRAS /KRAS [1, 9]	HRAS /KRAS (HRAS wild-type protein; [10])	Kd ([3]; Single Cycle Kinetics) [nM]
CCO[C@@H]1C[C@H]2C(=O)NC3(CCC3)C(=O)N(C)[C@@H](C3CCCC3)C(=O)N(C)[C@H](C(=O)N(CC)CC)CC(=O)N(C)[C@@H](CC(C)C)C(=O)N[C@@H]([C@@H](C)CC)C(=O)N(C)CC(=O)N(C)[C@H]3C/C=C\CCN(C3=O)[C@@H](Cc3ccc(C)cc3)C(=O)N(C)CC(=O)N[C@@H](CCc3ccc(C(F)(F)F)c(OC)c3)C(=O)N2C1 [PP1887]	A (a compound having 10 or more and less than 20 is denoted as A)	19.2	B (a compound having 3 or more and less than 10 is denoted as B)	0.3	–	–	–	–	–	–
CCC[C@H]1C(=O)N[C@@H]([C@@H](C)CC)C(=O)N(C)CC(=O)N(C)[C@H]2C/C=C\CCN(C2=O)[C@@H](Cc2ccc(C)cc2)C(=O)N(C)CC(=O)N[C@@H](CCc2ccc(Cl)c(Cl)c2)C(=O)N2C[C@H](OCC)C[C@H]2C(=O)NC2(CC(C)(C)C2)C(=O)N(C)[C@@H](CC2CC2)C(=O)N(C)[C@H](C(=O)N(C)C)CC(=O)N1C [PP2799]	–	136	–	–	A (a compound having 10 or more and less than 20 is denoted as A)	A (a compound having 10 or more and less than 20 is denoted as A)	1.2	–	–	–
CC[C@H](C)[C@@H]1NC(=O)[C@H](CC(C)C)N(C)C(=O)C[C@@H](C(=O)N2CCOCC2)N(C)C(=O)[C@H](C2CCCC2)N(C)C(=O)C2(CCCC2)NC(=O)[C@@H]2CCCN2C(=O)[C@H](CCc2ccc(C(F)(F)F)c(Cl)c2)NC(=O)CN(C)C(=O)[C@H](Cc2ccc(C)cc2)N2CC=CC[C@@H](C2=O)N(C)C(=O)CN(C)C1=O [PP0460]	–	5.4	–	0.14	–	–	–	C (A compound having a KD ratio of 0.1 or more and less than 3 is denoted as C)	C (A compound having a KD ratio of 0.1 or more and less than 3 is denoted as C)	–
CCCN(C)C(=O)[C@@H]1CC(=O)N(C)[C@@H](CC)C(=O)N[C@@H]([C@@H](C)CC)C(=O)N(C)CC(=O)N(C)[C@H]2C/C=C\CCN(C2=O)[C@@H](Cc2ccc(C(F)(F)F)cc2)C(=O)N(C)CC(=O)N[C@@H](CCc2ccc(C(F)(F)F)c(OC)c2)C(=O)N2C[C@H](OCC)C[C@H]2C(=O)NC2(CC(C)(C)C2)C(=O)N(C)[C@@H](C2CCCC2)C(=O)N1C [PP1654]	A (a compound having 10 or more and less than 20 is denoted as A)	2.5	A (a compound having 10 or more and less than 20 is denoted as A)	0.097	–	–	–	–	–	–
CCO[C@@H]1C[C@H]2C(=O)NC3(CCC3)C(=O)N(C)[C@@H](C3CCCC3)C(=O)N(C)[C@H](C(=O)N(C)C)CC(=O)N(C)[C@@H](CC)C(=O)N[C@@H]([C@@H](C)CC)C(=O)N3CCCC[C@H]3C(=O)N(C)[C@H]3C/C=C\CCN(C3=O)[C@@H](Cc3ccc(C(F)(F)F)cc3)C(=O)N(C)CC(=O)N[C@@H](CCc3cc(F)c(C(F)(F)F)c(F)c3)C(=O)N2C1 [PP1058]	–	599	–	–	A (a compound having 10 or more and less than 20 is denoted as A)	B (a compound having 3 or more and less than 10 is denoted as B)	–	–	–	2.9
CCOC[C@H]1C(=O)N[C@@H]([C@@H](C)CC)C(=O)N(C2CC2)CC(=O)N(C)[C@H]2C/C=C\CCN(C2=O)[C@@H](Cc2ccc(C(F)(F)F)cc2)C(=O)N(C)CC(=O)N[C@@H](CCc2ccc(C(F)(F)F)c(OC)c2)C(=O)N2C[C@H](OCC)C[C@H]2C(=O)N(C)C2(CCC2)C(=O)N(C)[C@@H](C(CC)CC)C(=O)N(C)[C@H](C(=O)N(C)C)CC(=O)N1C [PP2315]	–	9	–	0.33	–	–	–	A (a compound having 10 or more and less than 20 is denoted as A)	A (a compound having 10 or more and less than 20 is denoted as A)	–
CCO[C@@H]1C[C@H]2C(=O)NC3(CCC3)C(=O)N(C)[C@@H](C(CC)CC)C(=O)N(C)[C@H](C3CCC3)CC(=O)N(C)[C@@H](CC3CC3)C(=O)N[C@@H]([C@@H](C)CC)C(=O)N(C)CC(=O)N(C)[C@H]3C/C=C\CCN(C3=O)[C@@H](Cc3ccc(C(F)(F)F)cc3)C(=O)N(C)CC(=O)N[C@@H](CCc3cc(F)c(C(F)(F)F)c(F)c3)C(=O)N2C1 [PP1636]	A (a compound having 10 or more and less than 20 is denoted as A)	95.2	A (a compound having 10 or more and less than 20 is denoted as A)	2.8	–	–	–	–	–	–
CCC(CC)[C@H]1C(=O)N(C)[C@H](C(=O)N(C)C)CC(=O)N(C)[C@@H](COC)C(=O)N[C@@H]([C@@H](C)CC)C(=O)N(C)CC(=O)N(C)[C@H]2C/C=C\CCN(C2=O)[C@@H](Cc2ccc(C)cc2)C(=O)N(C)CC(=O)N[C@@H](CCc2cc(F)c(C(F)(F)F)c(F)c2)C(=O)N2CCCCC[C@H]2C(=O)NC2(CC(C)(C)C2)C(=O)N1C [PP2960]	–	8.9	–	–	A (a compound having 10 or more and less than 20 is denoted as A)	A (a compound having 10 or more and less than 20 is denoted as A)	0.32	–	–	–
CCO[C@@H]1C[C@H]2C(=O)NC3(CC(C)(C)C3)C(=O)N(C)[C@@H](C3CCCC3)C(=O)N(C)[C@H](C(=O)N(C)C)CC(=O)N(C)[C@@H]([C@@H](C)OC)C(=O)N[C@@H]([C@@H](C)CC)C(=O)N(C3CC3)CC(=O)N(C)[C@H]3C/C=C\CCN(C3=O)[C@@H](Cc3ccc(C)cc3)C(=O)N(C)CC(=O)N[C@@H](CCc3ccc(C(F)(F)F)c(Cl)c3)C(=O)N2C1 [PP3212]	–	16.6	–	–	A (a compound having 10 or more and less than 20 is denoted as A)	A (a compound having 10 or more and less than 20 is denoted as A)	0.3	–	–	–
CCCN1C(=O)CN(C)C(=O)[C@@H]2CCN2C(=O)[C@H]([C@@H](C)CC)NC(=O)[C@@H]2CCCCCN2C(=O)C[C@@H](C(=O)N2CCOCC2)N(C)C(=O)[C@H](C2CCCC2)N(C)C(=O)C2(CCCC2)NC(=O)[C@@H]2CCCN2C(=O)[C@H](CCc2ccc(C(F)(F)F)c(Cl)c2)NC(=O)CN(C)C(=O)[C@@H]1Cc1ccc(C(F)(F)F)cc1 [PP0302] ([hPip]I[Aze][Sar][NPrPhe(4-CF3)][Sar][hPhe(3-Cl-4-CF3)]P[Ac5c][NMeGly(cPent)][NMeD]-Morpholide; lactam N-11)	–	126	–	–	B (a compound having 3 or more and less than 10 is denoted as B)	C (A compound having a KD ratio of 0.1 or more and less than 3 is denoted as C)	1.6	–	–	–
CC[C@H](C)[C@@H]1NC(=O)[C@H](CC(C)C)N(C)C(=O)C[C@@H](C(=O)N2CCOCC2)N(C)C(=O)[C@H](C2CCCC2)N(C)C(=O)C2(CCCC2)NC(=O)[C@@H]2CCCN2C(=O)[C@H](CCc2ccc(C(F)(F)F)c(Cl)c2)NC(=O)CN(C)C(=O)[C@H](Cc2ccc(C(F)(F)F)cc2)N2CCCCC[C@@H](C2=O)N(C)C(=O)CN(C)C1=O [PP0319]	–	23.5	–	–	B (a compound having 3 or more and less than 10 is denoted as B)	B (a compound having 3 or more and less than 10 is denoted as B)	1.8	–	–	–
CCC[C@H]1C(=O)N[C@@H]([C@@H](C)CC)C(=O)N(CCC)CC(=O)N(C)[C@H]2C/C=C\CCN(C2=O)[C@@H](Cc2ccc(C)cc2)C(=O)N(C)CC(=O)N[C@@H](CCc2ccc(C(F)(F)F)c(OC)c2)C(=O)N2C[C@H](OCC)C[C@H]2C(=O)NC2(CC(C)(C)C2)C(=O)N(C)[C@@H](C2CCCC2)C(=O)N(C)[C@H](C(=O)N(C)C)CC(=O)N1C [PP2054]	–	8.5	–	0.41	–	–	–	A (a compound having 10 or more and less than 20 is denoted as A)	A (a compound having 10 or more and less than 20 is denoted as A)	–
CCO[C@@H]1C[C@H]2C(=O)NC3(CC(C)(C)C3)C(=O)N(C)[C@@H](C(CC)CC)C(=O)N(C)[C@H](C(=O)N(C)C)CC(=O)N(C)[C@@H](CC)C(=O)N[C@@H]([C@@H](C)CC)C(=O)N(C)CC(=O)N(C)[C@H]3C/C=C\CCN(C3=O)[C@@H](Cc3ccc(C(F)(F)F)cc3)C(=O)N(C)CC(=O)N[C@@H](CCc3ccc(Cl)c(Cl)c3)C(=O)N2C1 [PP2179]	–	13.5	–	1.5	–	–	–	AA (a compound having 20 or more is denoted as AA)	A (a compound having 10 or more and less than 20 is denoted as A)	–
CCO[C@@H]1C[C@H]2C(=O)NC3(CC(C)(C)C3)C(=O)N(C)[C@@H](C3CCCC3)C(=O)N(C)[C@H](C(=O)N(C)C)CC(=O)N(C)[C@@H]([C@H](C)OC)C(=O)N[C@@H]([C@@H](C)CC)C(=O)N(C3CC3)CC(=O)N(C)[C@H]3C/C=C\CCN(C3=O)[C@@H](Cc3ccc(C)cc3)C(=O)N(C)CC(=O)N[C@@H](CCc3ccc(C(F)(F)F)c(OC)c3)C(=O)N2C1 [PP3191]	–	38.9	–	–	A (a compound having 10 or more and less than 20 is denoted as A)	A (a compound having 10 or more and less than 20 is denoted as A)	0.49	–	–	–
CCCOC[C@H]1C(=O)N[C@@H]([C@@H](C)CC)C(=O)N(C)CC(=O)N(C)[C@H]2C/C=C\CCN(C2=O)[C@@H](Cc2ccc(C)cc2)C(=O)N(C)CC(=O)N[C@@H](CCc2ccc(C(F)(F)F)c(OC)c2)C(=O)N2C[C@H](OCC)C[C@H]2C(=O)N(C)C2(CCC2)C(=O)N(C)[C@@H](C(CC)CC)C(=O)N(C)[C@H](C(=O)N(C)C)CC(=O)N1C [PP2323]	–	3.7	–	0.14	–	–	–	A (a compound having 10 or more and less than 20 is denoted as A)	A (a compound having 10 or more and less than 20 is denoted as A)	–
